Experimental data: paper PMC12439166, “Dietary flavonoids form supramolecular assemblies, alter biochemistry, and enhance cell resilience” (Frontiers in Nutrition, 2025)

Tested on: human fibroblasts
Test: TMT proteomics of fibroblasts with and without UV exposure, differential expression and pathway analysis
Type: cell-based
Conditions: result in words
Experimental: Human fibroblasts were obtained from Cell Applications Inc (Cat. # 106-05a) and were maintained in Dulbecco’s Modified Eagle medium (DMEM, Corning, Cat. #10-013-CV) with 10% fetal bovine serum (Gibco, Cat. #10082147) and 1% penicillin/streptomycin (Gibco, Cat. # 15070-063) in a humidified incubator with 5% CO2 at 37 °C. For ultraviolet radiation, fibroblasts were seeded in a 96-well plate at a density of 25,000 cells/well and maintained at 37 °C for 24 h. Cells were washed once with Hanks’ balanced salt solution (HBSS, Gibco, Cat. #14025-092), then treated for 1 h with different concentrations of compounds prepared in HBSS. Vitamin C (Sigma, Cat. # A5960) served as a positive control. Treated cells were exposed to ultraviolet light (UVP cross-linker, CL1000, 254 nm UV, 8 watts) at a total dose of 20 mJ/cm^2. Following irradiation, the HBSS was replaced with culture medium containing the same concentration of compounds as before irradiation, and cells were again maintained at 37 °C. Cell viability was measured at 24 h post-irradiation using CellTiter-Glo according to the manufacturer’s instructions (Promega, Cat.# G7571). Results were expressed as relative cell viability (%) with respect to control cells (cells without ultraviolet irradiation or compound treatment).
Frozen cell pellets were dissolved for 15 min in 6M Guanidinium Chloride at room temperature to lyse cells. Then, each solution was run on a 10 kDa filter (Pall, TX) and washed with 50 μL of TEAB buffer at 3000 rpm. FASP Digestion ([56]): A stock solution of Trypsin Platinum, Mass Spec Grade (Promega) at 100 μg/mL in 50 mM TEAB, and a specific volume of stock trypsin was added to each sample vial for each set of […] using a 1:50 ratio (Trypsin:Protein). Samples were incubated for 2 h at 50 °C and shaken/mixed at 350 rpm on an Eppendorf ThermoMixer C. TMT Labeling: Samples, now peptides, were labeled using 4 μL of TMTpro Mass Tag Labels (ThermoScientific). After labeling, samples were then shaken/mixed for 45 min to ensure labels were covalently bonded to peptides. The labeling reaction was quenched for 10 min using 1 μL of 5% hydroxyalamine. After quenching, samples were pooled into one 2 mL Eppendorf tube and then dried down using an Eppendorf Vacufuge Plus. Desalting Samples: Dried samples were resuspended in 300 μL of 0.1% TFA in ultrapure HPLC-grade water and vortexed to ensure full solubility. Samples were then desalted using Pierce^TM Peptide Desalting Spin Columns (ThermoScientific). Final eluates (desalted samples) contained 600 μL of 50% HPLC-grade Acetonitrile and 50% ultrapure HPLC-grade water. Desalted samples were then transferred to HPLC vials and were again dried down. […]

O=C1O[C@H]([C@@H](O)CO)C(O)=C1O [Vitamin C, reference compound]
proteins/pathways up- and downregulated, exposed to UV radiation (UV-irradiated cells): primarily upregulated proteins associated with cell cycle/DNA repair-related pathways | proteins/pathways up- and downregulated, without UV treatment (control conditions without UV): opposite effects
